2 compounds from US8951977B2, “Amorphous roxithromycin composition” (North-West University, priority 2011, dated 2015) can be followed below.

Data set [1] can be described thus: Stability trial at increased temperature and 75% relative humidity for 4 weeks (TGA, XRPD, IR). It counts as physicochemical. As to the method: During further stability analysis, samples of both the raw material and amorphous form (Form-III) of roxithromycin were kept at 25 degrees Celsius and 75% relative humidity (RH) (FIG. 7); 30 degrees Celsius and 75% relative humidity (FIG. 8); and 40 degrees Celsius and 75% relative humidity, for a period of 4 weeks. The samples were analysed by thermogravimetric analysis (TGA) and percentage weight loss/gain was determined.
It is evident from FIGS. 7 and 8 that after week 4 of a stability trial an amount of approximately 2.5% moisture is absorbed by the samples. The TGA results obtained for the samples stored at 40° C./75% RH (FIG. 9) did however not show the same extent of moisture absorption as that obtained with the samples of FIGS. 7 and 8. […] No moisture-induced recrystallisations of the amorphous form were observed. […] The amorphous form (Form-III) could therefore be regarded as stable against increased temperatures and humidity.
The IR data illustrates that the absorbed moisture was not structurally absorbed within the molecule, but only absorbed on the surface of the structure. This is confirmed by the peak between wavenumbers 3580 to 3464 cm^−1 that represents the —OH bands of roxithromycin raw material and the lack of peaks in the amorphous form (Form-III) of roxithromycin. […]

Data set [2] in a line: Solubility of roxithromycin forms in buffer media and water, excess solid, 37 degrees Celsius, 24 h, HPLC assay. It counts as physicochemical. As to conditions: for solubility at 24 h: 37 °C, thermodynamic from solid, 37 degrees Celsius. As to the method: In further analysis of the novel Form-III, each of five replicate test tubes were filled with an excess of the amorphous form (Form-III) of roxithromycin and 10 ml of solubility medium. The process was performed with each of the following mediums: acetate buffer (pH 4.5), phosphate buffer (pH 6.8), distilled water and 0.1 M HCl. The phosphate buffer comprises potassium dihydrogen phosphate, disodium hydrogen phosphate and water. The acetate buffer comprises ammonium acetate, glacial acetic acid and water. This method was also used for testing the prior art anhydrous roxithromycin.
The test tubes were fixed to a rotating axis (54 rpm) and submerged in a water bath at 37 degrees Celsius±2 degrees Celsius for twenty-four hours. The contents of the test tubes were filtered through a 0.45 μm filter and subsequently the respective filtrates were diluted.
The concentrations of the four filtrates of amorphous form (Form-III) of roxithromycin and roxithromycin raw material were respectively determined by HPLC (high performance liquid chromatography) assay. The HPLC assay was performed utilising a mobile phase of 30 g/L ammonium dihydrogen phosphate buffer at pH 5.3. The pH was adjusted with sodium hydroxide solution. The mobile phase comprised of buffer (600) and acetonitrile (400). A Luna C18 150 mm×4.6 mm column was used with a flow rate of 1.0 ml/min and a wavelength of 205 nm. Validation of this method provided a linear regression, R^2, of 0.9998.

Each structure is given as a SMILES string. Values after ≈ are worked out from the molar mass of the structure shown.

Broadly, the solubility is how much of the substance goes into solution per volume. Low values mean a poorly soluble substance, high ones a readily soluble substance.

Turning to `CC[C@H]1OC(=O)[C@H](C)[C@@H](O[C@H]2C[C@@](C)(OC)[C@@H](O)[C@H](C)O2)[C@H](C)[C@@H](O[C@@H]2O[C@H](C)C[C@H](N(C)C)[C@H]2O)[C@](C)(O)C[C@@H](C)/C(=N\OCOCCOC)[C@H](C)[C@@H](O)[C@]1(C)O` [Form-III, roxithromycin], the “solid-state stability of the amorphous form” value in data set [1] (25, 30 and 40 degrees Celsius, 75% RH, 4 weeks) was “stable over a period of 4 weeks and did not recrystallise to a crystalline form”. The “recrystallisation (XRPD)” value in data set [1] (storage four weeks at 40 degrees Celsius and 75% relative humidity) is given as “no recrystallisation”. The solubility at 24 h in data set [2] (aqueous buffer, acetate buffer (pH 4.5)) is 1150 ± 6.5 µg/mL (≈ 1370 µM); in data set [2] (aqueous buffer, phosphate buffer (pH 6.8)), 208 ± 3.7 µg/mL (≈ 249 µM); in data set [2] (distilled water) it was 8.6 ± 1.8 µg/mL (≈ 10.3 µM).

Regarding `CC[C@H]1OC(=O)[C@H](C)[C@@H](O[C@H]2C[C@@](C)(OC)[C@@H](O)[C@H](C)O2)[C@H](C)[C@@H](O[C@@H]2O[C@H](C)C[C@H](N(C)C)[C@H]2O)[C@](C)(O)C[C@@H](C)/C(=N\OCOCCOC)[C@H](C)[C@@H](O)[C@]1(C)O` [roxithromycin, 3R, 4S, 5S, 6R, 7R, 9R, 11S, 12R, 13S, 14R-6-[(2S,3R,4S,6R)-4-dimethylamino-3-hydroxy-6-methyloxan-2-yl]oxy-14-ethyl-7,12,13-trihydroxy-4-[(2R,4R,5S,6S)-5-hydroxy-4-methoxy-4,6-dimethyloxan-2-yl]oxy-10-(2-methoxyethoxymethoxyimino)-3,5,7,9,11,13-hexamethyl-1-oxacyclotetradecan-2-one], in data set [2] (0.1 M HCl solubility medium, results omitted for both forms), the “stability in 0.1 M HCl” value is given as “rapid degradation”.
